Common to all, as to experiment: Antimicrobial test in vitro (MIC, agar plate dilution method)
Assay type in all cases: cell-based
Common to all, as to parameters: unit not given here

Assay [1] deals with Staphylococcus aureus FDA 209P. The note with it: S. aureus FDA 209P. The method, then: (§1) The antimicrobial activities of the following test compounds were tested by measuring the minimum inhibitory concentration (MIC) by an agar plate dilution method [cf. Chemotherapy, 22, 1126-1128 (1974)]. The test microorganisms were used in a concentration of 1×10^8 cells/ml (optical dencity (O.D.) at 660 m: 0.07-0.16) and 1×10^6 cells/ml (dilution: 100 folds).
A: Staphylococcus aureus FDA 209P

Assay [2] relates to Serratia marcescens IFO 12648. The conditions noted are these: S. marcescens IFO 12648. As to the method:
as §1
H: Serratia marcescens IFO 12648

The subject of assay [3] is Klebsiella pneumoniae NCTC 9632. The note with it: K. pneumoniae NCTC 9632. As to the method: as §1
E: Klebsiella pneumoniae NCTC 9632

Assay [4] has as its system Pseudomonas aeruginosa ATCC 10145. The conditions noted are these: P. aeruginosa ATCC 10145. The method, then: as §1
J: Pseudomonas aeruginosa ATCC 10145

Assay [5] deals with Pseudomonas aeruginosa E-2. The conditions noted are these: P. aeruginosa E-2. The method, then: as §1
K: Pseudomonas aeruginosa E-2

The test system of assay [6] is Acinetobacter calcoaceticus AC-54. The conditions noted are these: A. calcoaceticus AC-54. As to the method:
as §1
I: Acinetobacter calcoaceticus AC-54

Another assay deals with Escherichia coli No. 29. The note with it: E. coli No. 29. As to the method:
as §1
D: Escherichia coli No. 29

The test system of assay [7] is Proteus morganii II D Kono. The conditions noted are these: P. morganii II D Kono. The method, then:
as §1
G: Proteus morganii II D Kono

The subject of the next assay is Proteus mirabilis 1287. The note with it: P. mirabilis 1287. The method, then: as §1
F: Proteus mirabilis 1287

The subject of assay [8] is Streptococcus pyogenes II D S-23. The conditions noted are these: S. pyogenes II D S-23. The method, then:
as §1
B: Streptococcus pyogenes II D S-23

Assay [9] deals with Escherichia coli NIHJ JC-2. The conditions noted are these: E. coli NIHJ JC-2. The method, then:
as §1
C: Escherichia coli NIHJ JC-2

Consider five molecules from US4594347A, “Pyrrolo [3,2,1-ij]-quinoline carboxylic acid compound” (Otsuka Pharmaceutical Co. Limited, priority 1983, dated 1986).

SMILES strings stand for the structures.

In the case of `CC1Cc2c(N3CCNCC3)c(F)c(N)c3c(=O)c(C(=O)O)cn1c23` (centres unmarked) [Compound 2, 8-fluoro-2-methyl-9-(1-piperazinyl)-7-amino-6-oxo-1,2-dihydro-pyrrolo[3,2,1-ij]quinoline-5-carboxylic acid], the “minimum inhibitory concentration (MIC)” value in assay [1] (1×10^6 cells/ml) is given as 0.39; in assay [1] (1×10^8 cells/ml), 0.78; in assay [2] (1×10^6 cells/ml), 0.2; in [2] (1×10^8 cells/ml), 0.2; in assay [3] (1×10^6 cells/ml), 0.1; in assay [3] (1×10^8 cells/ml), 0.2. The “minimum inhibitory concentration (MIC)” value in assay [4] (1×10^6 cells/ml) was 0.39; in [4] (1×10^8 cells/ml), 0.39; in [5] (1×10^6 cells/ml), 0.39; in [5] (1×10^8 cells/ml), 0.39; in assay [6] (1×10^6 cells/ml), 0.78; in [6] (1×10^8 cells/ml), 3.13. For the same molecule, the “minimum inhibitory concentration (MIC)” value stood at 0.1 in the assay with Escherichia coli No. 29 (1×10^6 cells/ml); 0.1 in the assay on Escherichia coli No. 29 (1×10^8 cells/ml); 0.2 in [7] (1×10^6 cells/ml); 0.39 in assay [7] (1×10^8 cells/ml); 0.2 in the assay on Proteus mirabilis 1287 (1×10^6 cells/ml); 0.2 in the assay with Proteus mirabilis 1287 (1×10^8 cells/ml). In addition, the “minimum inhibitory concentration (MIC)” value in [8] (1×10^6 cells/ml) is on record as 3.13; in assay [8] (1×10^8 cells/ml) it was 6.25; in assay [9] (1×10^6 cells/ml), 0.1; in assay [9] (1×10^8 cells/ml) it was 0.1.
Turning to `CC1Cc2c(N3CCCCC3)c(F)c(N)c3c(=O)c(C(=O)O)cn1c23` (centres unmarked) [Compound 4, 7-amino-8-fluoro-2-methyl-6-oxo-9-(1-piperidyl)-1,2-dihydro-pyrrolo[3,2,1-ij]quinoline-5-carboxylic acid], the “minimum inhibitory concentration (MIC)” value in [1] (1×10^6 cells/ml) was determined as 0.39; in [1] (1×10^8 cells/ml) it was 0.39; in [2] (1×10^6 cells/ml), 6.25; in assay [2] (1×10^8 cells/ml), 6.25; in [3] (1×10^6 cells/ml), 1.56; in assay [3] (1×10^8 cells/ml), 3.13. Besides, the “minimum inhibitory concentration (MIC)” value in [4] (1×10^6 cells/ml) is 12.5; in [4] (1×10^8 cells/ml), 25; in assay [5] (1×10^6 cells/ml), 25; in assay [5] (1×10^8 cells/ml), 25; in assay [6] (1×10^6 cells/ml), 6.25; in assay [6] (1×10^8 cells/ml) it was 6.25. Further, the “minimum inhibitory concentration (MIC)” value in the assay with Escherichia coli No. 29 (1×10^6 cells/ml) is 1.56; in the assay with Escherichia coli No. 29 (1×10^8 cells/ml), 1.56; in [7] (1×10^6 cells/ml), 1.56; in assay [7] (1×10^8 cells/ml), 1.56; with Proteus mirabilis 1287 (1×10^6 cells/ml), 6.25; with Proteus mirabilis 1287 (1×10^8 cells/ml) it was 6.25. The “minimum inhibitory concentration (MIC)” value was determined as 25 in assay [8] (1×10^6 cells/ml), 25 in assay [8] (1×10^8 cells/ml), 0.78 in assay [9] (1×10^6 cells/ml) and 0.78 in assay [9] (1×10^8 cells/ml).
Take `CC1Cc2c(N3CCCC3)c(F)c(N)c3c(=O)c(C(=O)O)cn1c23` (centres unmarked) [Compound 6, 7-amino-8-fluoro-2-methyl-6-oxo-9-(1-pyrrolidinyl)-1,2-dihydro-pyrrolo[3,2,1-ij]quinoline-5-carboxylic acid]: the “minimum inhibitory concentration (MIC)” value stood at 0.39 in assay [1] (1×10^6 cells/ml); 0.78 in [1] (1×10^8 cells/ml); 6.25 in assay [2] (1×10^6 cells/ml); 6.25 in [2] (1×10^8 cells/ml); 1.56 in [3] (1×10^6 cells/ml); 6.25 in assay [3] (1×10^8 cells/ml). Moreover, the “minimum inhibitory concentration (MIC)” value is recorded as 6.25 in [4] (1×10^6 cells/ml); 12.5 in assay [4] (1×10^8 cells/ml); 1.56 in [5] (1×10^6 cells/ml); 12.5 in assay [5] (1×10^8 cells/ml); 6.25 in [6] (1×10^6 cells/ml); 6.25 in [6] (1×10^8 cells/ml). The “minimum inhibitory concentration (MIC)” value in the assay on Escherichia coli No. 29 (1×10^6 cells/ml) was 1.56; with Escherichia coli No. 29 (1×10^8 cells/ml) it was 1.56; in assay [7] (1×10^6 cells/ml), 6.25; in [7] (1×10^8 cells/ml), 6.25; in the assay on Proteus mirabilis 1287 (1×10^6 cells/ml), 6.25; in the assay on Proteus mirabilis 1287 (1×10^8 cells/ml), 6.25. Also, the “minimum inhibitory concentration (MIC)” value worked out at 6.25 in [8] (1×10^6 cells/ml), 12.5 in [8] (1×10^8 cells/ml), 0.78 in assay [9] (1×10^6 cells/ml) and 1.56 in assay [9] (1×10^8 cells/ml).
On to `CC1Cc2c(N3CCOCC3)c(F)c(N)c3c(=O)c(C(=O)O)cn1c23` (centres unmarked) [Compound 3, 7-amino-8-fluoro-9-(4-morpholino)-2-methyl-6-oxo-1,2-dihydro-pyrrolo[3,2,1-ij]quinoline-5-carboxylic acid], for which the “minimum inhibitory concentration (MIC)” value in [1] (1×10^6 cells/ml) worked out at 0.2; in [1] (1×10^8 cells/ml) it was 0.39; in [2] (1×10^6 cells/ml), 0.78; in [2] (1×10^8 cells/ml), 0.78; in assay [3] (1×10^6 cells/ml), 0.39; in [3] (1×10^8 cells/ml) it was 0.39. Moreover, the “minimum inhibitory concentration (MIC)” value in assay [4] (1×10^6 cells/ml) is 3.13; in assay [4] (1×10^8 cells/ml) it was 6.25; in [5] (1×10^6 cells/ml) it was 6.25; in assay [5] (1×10^8 cells/ml), 6.25; in assay [6] (1×10^6 cells/ml), 0.78; in [6] (1×10^8 cells/ml), 1.56. Moreover, the “minimum inhibitory concentration (MIC)” value with Escherichia coli No. 29 (1×10^6 cells/ml) was 0.2; in the assay with Escherichia coli No. 29 (1×10^8 cells/ml), 0.39; in assay [7] (1×10^6 cells/ml) it was 0.39; in [7] (1×10^8 cells/ml), 0.39; in the assay with Proteus mirabilis 1287 (1×10^6 cells/ml), 0.78; in the assay with Proteus mirabilis 1287 (1×10^8 cells/ml), 1.56. Further, the “minimum inhibitory concentration (MIC)” value was 12.5 in [8] (1×10^6 cells/ml), 12.5 in assay [8] (1×10^8 cells/ml), 0.2 in [9] (1×10^6 cells/ml) and 0.2 in assay [9] (1×10^8 cells/ml).
Take `CC1Cc2c(N3CCC(O)CC3)c(F)c(N)c3c(=O)c(C(=O)O)cn1c23` (centres unmarked) [Compound 5, 7-amino-8-fluoro-9-(4-hydroxy-1-piperidyl)-2-methyl-6-oxo-1,2-dihydro-pyrrolo[3,2,1-ij]quinoline-5-carboxylic acid]: the “minimum inhibitory concentration (MIC)” value in [1] (1×10^6 cells/ml) is given as 0.2; in [1] (1×10^8 cells/ml) it was 0.39; in assay [2] (1×10^6 cells/ml), 1.56; in assay [2] (1×10^8 cells/ml), 3.13; in assay [3] (1×10^6 cells/ml), 0.78; in assay [3] (1×10^8 cells/ml), 0.78. Further, the “minimum inhibitory concentration (MIC)” value in assay [4] (1×10^6 cells/ml) was 6.25; in [4] (1×10^8 cells/ml), 6.25; in [5] (1×10^6 cells/ml), 6.25; in assay [5] (1×10^8 cells/ml), 12.5; in assay [6] (1×10^6 cells/ml), 3.13; in assay [6] (1×10^8 cells/ml), 6.25. Further, the “minimum inhibitory concentration (MIC)” value with Escherichia coli No. 29 (1×10^6 cells/ml) turned out to be 0.78; in the assay on Escherichia coli No. 29 (1×10^8 cells/ml), 0.78; in assay [7] (1×10^6 cells/ml), 1.56; in assay [7] (1×10^8 cells/ml), 1.56; in the assay on Proteus mirabilis 1287 (1×10^6 cells/ml) it was 1.56; in the assay on Proteus mirabilis 1287 (1×10^8 cells/ml), 1.56. For the same molecule, the “minimum inhibitory concentration (MIC)” value in [8] (1×10^6 cells/ml) is 6.25; in assay [8] (1×10^8 cells/ml), 12.5; in [9] (1×10^6 cells/ml) it was 0.39; in [9] (1×10^8 cells/ml), 0.78.
